Experiments:
[1] = tested on: B16/F10 mouse melanoma cells; assay: Testing NK-mediated tumor cell killing in vivo (lung seeding of B16-OVA cells); design: species or system C57BL6 mice; conditions: FIG. 15J
Experimental: C57Bl/6 mice were injected with control or flavopiridol (100 μM) treated 2×10^5 B16-OVA cells into tail veins. One hour later, the lungs were harvested, digested in liberase and the frequency of tumor cells was assessed using quantitative PCR (Shehata et al., 2015). mRNA levels for OVA (B16-OVA) were assessed and normalized to GAPDH. […] Six mice for each group were used. The protocol and use of mice were performed with the approval of the Cincinnati Children's Institutional Animal Care and Use Committee.

Cal51 and T47D cells = assay: Immunoblot of RNAP II and histone marks in cells treated with flavopiridol; assay type: cell-based; conditions: increasing sublethal doses of flavopiridol for 48 hours, FIG. 15G
Experimental: (§1) Total proteins were extracted with RIPA buffer (Santa Cruz Biotechnology, sc-24948), and 15 μg protein from each sample was run in a 4-18% SDS polyacrylamide gel (Bio-Rad), and transferred onto polyvinylidene difluoride membranes. The membranes were blocked in 5% dry milk in tris-buffered saline—Tween 20 for 1 hour. Blocked membranes were incubated overnight with primary antibodies against pSer5-RNA polymerase II (1:1000, Active motif), pSer2-RNA polymerase II (1:1000, Active motif), RNA polymerase II (1:1000, Active motif), SETD2 (1:1000, abcam), CyclinT1 (1:1000, Santa Cruz), H3K36me3 (1:5000, abcam), H3K27me3 (1:5000, Active motif), Pan-acetyl-H3 (1:5000, Cell Signaling), Histone H3 (1:5000, Cell Signaling), pMAPK (1;1000, Cell Signaling), MAPK (1;1000, Cell Signaling), pAKT (1:1000, Cell Signaling), STAT1 (1:1000, Cell Signaling), pSTAT1 (1:1000, Cell Signaling), NF-κB (1:1000, Cell Signaling), pNF-κB (1:1000), Cleaved-PARP(1:1000, Cell Signaling), Caspase-3 (1;1000, Cell Signaling), β-Actin (1;1000, Cell Signaling), GAPDH (1:1000, Cell Signaling) in 5% bovine serum albumin. After washing and incubating with the appropriate secondary antibody (anti-rabbit IgG or anti-Rat IgG (1:5000, Cell signaling)), protein signals were detected with enhanced chemiluminescence (Millipore).

Cal51 cells [2] = assay: STAT1 activation after IFN-α stimulation in flavopiridol-treated cells; assay type: cell-based; conditions: flavopiridol for 48 hours, then IFN-α for 30 minutes, FIG. 15H
Experimental: as §1, with “(Millipore). […]” for “(Millipore).”

Cal51 cells [3] = assay: Cytotoxicity assay: relative viability after FasL stimulation with flavopiridol pre-treatment; assay type: cell-based; conditions: 24 hours FasL, 48 hour pre-treatment with 100 μM flavopiridol, FIG. 15I
Experimental: Equal number of cells was seeded into the wells of 96-well culture plates in their corresponding medium and incubated overnight in a 5% CO2 humidified incubator. Cells were then treated with different concentrations of hhis6FasL (0.1 ng/ml-1000 ng/ml) in the presence of 10 μg/ml anti-His antibody (Cell Signaling) for 24 hours. Dead cells were removed by washing with PBS buffer and the attached cells were fixed and stained with crystal violet solution [20% methanol, 0.5% crystal violet (Sigma) in 1× phosphate-buffered saline (PBS)] for 30 min. Excess stain was removed by gently rinsing the plates in tap water, and the plates were dried at room temperature. Crystal violet crystals were redissolved in Triton (Amresco), and cell density was determined by measuring the absorbance at 570 nm in a microplate reader (Bio-Tek Instruments).

Structure (SMILES): CN1CC[C@H](c2c(O)cc(O)c3c(=O)cc(-c4ccccc4Cl)oc23)[C@H](O)C1 [flavopiridol]
- lung seeding of B16 cells (OVA mRNA normalized to GAPDH, qPCR) ([1]; B16-OVA cells treated with flavopiridol (100 μM), tail vein injection into C57Bl/6 mice, lungs after 1 hour, vs control cells): significantly increased the ability of B16 cells for lung seeding
- lung seeding of B16 cells in NK-depleted mice ([1]; as E4, mice pre-injected with anti-asialo GM1 (NK depletion)): the effect was diminished
- RNAP II and histone marks (epigenetic and transcriptional defects) (Cal51 and T47D cells): widespread epigenetic and transcriptional defects
- response to pro-inflammatory stimuli (STAT1 activation) (Cal51 cells [2]): resistance to pro-inflammatory stimuli
- relative viability after FasL challenge (Cal51 cells [3]): resistance to pro-inflammatory stimuli and FasL challenge

Source: US20180371550A1, “LOSS OF TRANSCRIPTIONAL FIDELITY LEADS TO IMMUNOTHERAPY RESISTANCE IN CANCERS” (Children's Hospital Medical Center, priority 2015, published 2018)
